The numbers were not newly measured in article PMC10797624, “Multitracer Approach to Understanding the Complexity of Reactive Astrogliosis in Alzheimer’s Brains” (ACS Chemical Neuroscience, 2023), which cites them from elsewhere.

For series [1], the system named is [^3H]-BU99008 binding sites. More on the design: method as in PMID 33888872. To be noted: L-deprenyl vs [^3H]-BU99008.
For a further series, the system named is MAO-B. More on the design: method as in PMID 32646880. To be noted: small brain section autoradiography.

Regarding `C#CCN(C)[C@H](C)Cc1ccccc1` [L-deprenyl], the “binding sites and affinities vs [^3H]-BU99008” value in series [1] was “multiple binding sites with pico- and micromolar affinities”.

On to `NCCNC(=O)c1ccc(Cl)cn1` [lazabemide], for which the “displacement of [^18F]-SMBT-1 binding” value in the series on MAO-B is listed as “fully displaced”.
